Assay results from patent US11382892B2, “Method for administration” (Hoffmann-La Roche Inc., priority 2012, dated 2022).
Where “and” joins values, the source holds several entries; their conditions need not be identical. Equal values may be shown once.

Key:
[1] = test system: human acute myeloid leukemia xenograft model MOLM-13; experiment: Survival / increase in life span in MOLM-13 xenograft; format: in vivo, mice; settings: 80 mg/kg qd × 5 po
Procedure: For survival assessment, the percent of increased life space (ILS) was calculated as: 100×[(median survival day of treated group−median survival day of control group)/median survival day of control group]. Median survival was determined utilizing Kaplan Meier survival analysis. Survival in treated groups was statistically compared with the vehicle group and survival comparisons were done between groups using the log-rank test (Graph Pad Prism, La Jolla, Calif., USA). Differences between groups were considered significant when the probability value (p) was ≤0:05.
All dose levels are reported as the actual dosage of Compound A rather than including drug plus polymer.
Female SCID:beige mice (10/group), obtained from Charles River Laboratories (Wilmington, Del.) were utilized when they were approximately 8-10 weeks of age and weighed 21-23 g. The health of the mice was assessed daily by gross observation and analyses of blood samples taken from sentinel animals housed on shared shelf racks. All animals were allowed to acclimate and recover from any shipping-related stress for a minimum of 72 hours prior to experimental use. […]
Treatment duration was initiated on day 3 and was for 2 weeks. Animal body weights were measured three times per week and animals were monitored for clinical signs daily.

[2] = Toxicity summary (body weight, mortality) in SJSA1 xenograft study; format: in vivo
Description: In the examples below, weight loss was graphically represented as percent change in mean group body weight, using the formula: ((W−W0)/W0)×100, where ‘W’ represents mean body weight of the treated group at a particular day, and ‘W0’ represents mean body weight of the same treated group at initiation of treatment.
Female athymic Crl:NU-Foxn1nu mice (10/group), obtained from Charles River Laboratories (Wilmington, Del.) were utilized when they were approximately 10-12 weeks of age and weighed 23-25 g. The health of the mice was assessed daily by gross observation and analyses of blood samples taken from sentinel animals housed on shared shelf racks. All animals were allowed to acclimate and recover from any shipping-related stress for a minimum of 72 hours prior to experimental use. Autoclaved water and irradiated food (5058-ms Pico Lab mouse chow, Purina Mills, Richmond, Ind.) were provided ad libitum, and the animals were maintained on a 12 hour light and dark cycle. Cages, bedding and water bottles were autoclaved before use and changed weekly. All animal experiments were conducted in accordance with the Guide for the Care and Use of Laboratory Animals, local regulations, and protocols approved by the Roche Animal Care and Use Committee in an AAALAC accredited facility.
Treatment duration was 2-4 weeks. Dates of tumor implant, treatment initiation (study start date), and termination of treatment (study end date) can be found in Table 6 below. The starting tumor volume for this study was about 220 mm^3. Tumor volumes and animal body weights were measured three times per week and animals were monitored for clinical signs daily.

MDM2 mRNA = MDM2 mRNA assay in patient tumor biopsies; format: in vivo, human; settings: for MDM2 mRNA Average FCBL: cohort average; for MDM2 mRNA Median FCBL: cohort median; for MDM2 mRNA FCBL: individual patients, tumor biopsy vs baseline
Procedure: The 10 mg tablets contain hypromellose acetate succinate, mannitol, microcrystalline cellulose, croscarmellose sodium, colloidal silicon dioxide, and magnesium stearate. The film-coat consists of hypromellose, titanium dioxide, talc, triacetin, iron oxide yellow, and iron oxide red. The 50 mg, 200 mg, and 400 mg film coated tablets contain the excipients hypromellose acetate succinate, croscarmellose sodium, colloidal silicon dioxide, and magnesium stearate. The film-coat consists of polyvinyl alcohol, titanium dioxide, polyethylene glycol, talc, iron oxide yellow, iron oxide red, and iron oxide black.
Tumor biopsies were collected at baseline and cycle 1, day 5±2.

[3] = 100 mg/kg QD po 2 on/12 off x 2
[4] = 200 mg/kg (two 100 mg/kg doses 8 hr apart) 1x/wk po

## COc1cc(C(=O)O)ccc1NC(=O)[C@@H]1N[C@@H](CC(C)(C)C)[C@](C#N)(c2ccc(Cl)cc2F)[C@H]1c1cccc(Cl)c1F [Compound A, 4-{[(2R,3S,4R,5S)-4-(4-Chloro-2-fluoro-phenyl)-3-(3-chloro-2-fluoro-phenyl)-4-cyano-5-(2,2-dimethyl-propyl)-pyrrolidine-2-carbonyl]-amino}-3-methoxy-benzoic acid]
[1]
  % ILS: 37%
[1]; vehicle 21 days
  50% Treatment Days (median survival): 28 days
[2]; 7.5 mg/kg QD po
  # of animals ≥20% BWL: 0
  % Change in Body Weight at end of Study Day 29: 9.0%
  Maximum % Weight gain: 9.0%
  Maximum % Weight loss: −0.3%
  Mortality: 0
[2]; 15 mg/kg QD po
  # of animals ≥20% BWL: 0
  % Change in Body Weight at end of Study Day 29: 5.9%
  Maximum % Weight gain: 5.9%
  Maximum % Weight loss: −2.2%
  Mortality: 0
[2]; 20 mg/kg QD po 20 on/8 off
  # of animals ≥20% BWL: 0
  % Change in Body Weight at end of Study Day 29: 1.2%
  Maximum % Weight gain: 1.2%
  Maximum % Weight loss: −3.9%
  Mortality: 0
[2]; 30 mg/kg QD po
  # of animals ≥20% BWL: 0
  % Change in Body Weight at end of Study Day 29: 1.3%
  Maximum % Weight gain: 1.3%
  Maximum % Weight loss: −0.2%
  Mortality: 0
[2]; 50 mg/kg 1x/wk po
  # of animals ≥20% BWL: 0
  % Change in Body Weight at end of Study Day 29: 6.6%
  Maximum % Weight gain: 6.6%
  Maximum % Weight loss: −0.3%
  Mortality: 0
[2]; 50 mg/kg QD po 2 on/5 off x 4
  # of animals ≥20% BWL: 0
  % Change in Body Weight at end of Study Day 29: 7.1%
  Maximum % Weight gain: 7.1%
  Maximum % Weight loss: −0.8%
  Mortality: 0
[2]; 50 mg/kg QD po 4 on/10 off x 2
  # of animals ≥20% BWL: 0
  % Change in Body Weight at end of Study Day 29: 1.2%
  Maximum % Weight gain: 1.2%
  Maximum % Weight loss: −1.1%
  Mortality: 0
[2]; 80 mg/kg QD po 5 on/23 off
  # of animals ≥20% BWL: 0
  % Change in Body Weight at end of Study Day 29: 8.0%
  Maximum % Weight gain: 8.0%
  Maximum % Weight loss: 0.3%
  Mortality: 0
[2]; 100 mg/kg 1x/wk po
  # of animals ≥20% BWL: 0
  % Change in Body Weight at end of Study Day 29: 9.1%
  Maximum % Weight gain: 9.1%
  Maximum % Weight loss: 4.2%
  Mortality: 0
[2]; 100 mg/kg QD po 2 on/5 off x 4
  # of animals ≥20% BWL: 0
  % Change in Body Weight at end of Study Day 29: 1.3%
  Maximum % Weight gain: 1.3%
  Maximum % Weight loss: −2.8%
  Mortality: 0
[2]; [3]
  # of animals ≥20% BWL: 0
  % Change in Body Weight at end of Study Day 29: 0.9%
  Maximum % Weight gain: 1.8%
  Maximum % Weight loss: −0.6%
  Mortality: 0
[2]; [4]
  # of animals ≥20% BWL: 0
  % Change in Body Weight at end of Study Day 29: 6.3%
  Maximum % Weight gain: 6.3%
  Maximum % Weight loss: 1.9%
  Mortality: 0
MDM2 mRNA; BM-A1 800 mg bid Qwk × 3
  MDM2 mRNA Average FCBL: 1.2
  MDM2 mRNA Median FCBL: 1.1
  MDM2 mRNA FCBL: 1.0 and 1.4 and 1.1
MDM2 mRNA; BM-A2 1200 mg bid Qwk × 3
  MDM2 mRNA Average FCBL: 1.4
  MDM2 mRNA Median FCBL: 1.3
  MDM2 mRNA FCBL: 1.0 (2×) and 1.8 and 2.1 and 1.3
MDM2 mRNA; BM-B1 400 mg bid × 5 d
  MDM2 mRNA Average FCBL: 8.5
  MDM2 mRNA Median FCBL: 8.7
  MDM2 mRNA FCBL: 5.4 and 3.7 and 12.1 and 12.9
MDM2 mRNA; BM-B2 500 mg bid × 3 d
  MDM2 mRNA Average FCBL: 5.1
  MDM2 mRNA Median FCBL: 1.3
  MDM2 mRNA FCBL: 0.2 and 0.7 and 1.3 and 3.8 and 19.6
MDM2 mRNA; BM-B3 500 mg qd × 5 d
  MDM2 mRNA Average FCBL: 2.4
  MDM2 mRNA Median FCBL: 2.0
  MDM2 mRNA FCBL: 1.5 and 2.5 and 4.2 and 1.2
MDM2 mRNA; doses and schedules of Table 8
  levels of MDM2 mRNA expression in patient's tumors: increase in the levels of MDM2 mRNA expression
